SMILES strings stand for the structures.

The first experiment deals with T1, Calcitonin gene-related peptide type 1 receptor (Homo sapiens, UniProt O60894+Q16602). Put plainly: Displacement of [125I]hCGRP from human cloned CGRP receptor expressed in HEK293 cells. It counts as cell-based.
T1 sequence (Q16602 whole entry, one chain of several): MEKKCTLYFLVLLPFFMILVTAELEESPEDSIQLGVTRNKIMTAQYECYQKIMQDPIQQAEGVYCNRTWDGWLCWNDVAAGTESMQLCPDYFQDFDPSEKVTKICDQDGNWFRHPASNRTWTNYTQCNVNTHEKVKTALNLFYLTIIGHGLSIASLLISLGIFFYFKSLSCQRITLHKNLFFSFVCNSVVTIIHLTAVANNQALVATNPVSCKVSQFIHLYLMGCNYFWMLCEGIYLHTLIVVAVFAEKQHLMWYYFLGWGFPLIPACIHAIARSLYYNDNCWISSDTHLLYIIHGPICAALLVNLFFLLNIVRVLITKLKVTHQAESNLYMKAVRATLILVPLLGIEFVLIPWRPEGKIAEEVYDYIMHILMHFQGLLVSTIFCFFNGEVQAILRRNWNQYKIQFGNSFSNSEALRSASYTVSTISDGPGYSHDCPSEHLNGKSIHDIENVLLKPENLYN
What is called Ki is the equilibrium dissociation constant of an inhibitor or competing ligand from its target. As to `C[C@H](c1cc(F)cc(F)c1)N(CC(=O)Nc1ccc2c(c1)C[C@@]1(C2)C(=O)NC(=O)N1C)C(=O)C(C)(C)C`, the inhibitory constant (Ki) worked out at 0.26 nM.

In the case of `CN1C(=O)NC(=O)C12Cc1ccc(NC(=O)CN(Cc3cccc(F)c3)C(=O)C(C)(C)C)cc1C2` (racemic), the Ki was 1.6 nM.

For `CN1C(=O)NC(=O)C12Cc1ccc(NC(=O)CN(Cc3cccc(Cl)c3)C(=O)C(C)(C)C)cc1C2` (racemic), the Ki was found to be 1.8 nM.

Take `CN1C(=O)NC(=O)C12Cc1ccc(NC(=O)CN(Cc3cccc(C#N)c3)C(=O)C(C)(C)C)cc1C2` (racemic): the inhibitory constant (Ki) came to 23 nM.

As to `Cc1cccc(CN(CC(=O)Nc2ccc3c(c2)CC2(C3)C(=O)NC(=O)N2C)C(=O)C(C)(C)C)c1` (racemic), the Ki stood at 7.9 nM.

On to `NCC12CC(=O)Nc3cccc(c31)N(Cc1ccc3cc4c(cc3n1)C[C@]1(C4)C(=O)Nc3ncccc31)C2=O` (stereo partly drawn), for which the inhibition constant Ki turned out to be 0.13 nM.

For `CN1C(=O)NC(=O)C12Cc1ccc(NC(=O)CN(Cc3ccc(F)cc3)C(=O)C(C)(C)C)cc1C2` (racemic), the inhibition constant (Ki) came out at 3.7 nM.

Regarding `COc1cccc(CN(CC(=O)Nc2ccc3c(c2)CC2(C3)C(=O)NC(=O)N2C)C(=O)C(C)(C)C)c1` (racemic), the Ki came to 45 nM.

Consider `CN1C(=O)NC(=O)C12Cc1ccc(NC(=O)CN(Cc3ccccc3F)C(=O)C(C)(C)C)cc1C2` (racemic), for which the Ki came to 14 nM.

Regarding `C[C@H](c1ccccc1)N(CC(=O)Nc1ccc2c(c1)C[C@@]1(C2)C(=O)NC(=O)N1C)C(=O)C(C)(C)C`, the inhibition constant Ki was 0.83 nM.

As to `CN1C(=O)NC(=O)[C@@]12Cc1ccc(NC(=O)CN(Cc3cc(F)cc(F)c3)C(=O)C(C)(C)C)cc1C2`, the inhibition constant (Ki) was determined as 0.55 nM.

Regarding `CC1(C)CC[C@@H](c2c(F)cccc2F)N(CC(=O)Nc2ccc3c(c2)C[C@]2(C3)C(=O)Nc3ncccc32)C1=O`, the Ki stood at 0.035 nM.

`CN1C(=O)NC(=O)[C@@]12Cc1ccc(NC(=O)CN(Cc3cc(F)cc(Cl)c3)C(=O)C(C)(C)C)cc1C2`: the Ki was 1.2 nM.

Regarding `CN1C(=O)NC(=O)[C@@]12Cc1ccc(NC(=O)CN(Cc3cc(Cl)cc(Cl)c3)C(=O)C(C)(C)C)cc1C2`, the Ki was 4.4 nM.

For the compound `CN1C(=O)NC(=O)C12Cc1ccc(NC(=O)CN(Cc3ccc(C(F)(F)F)cc3)C(=O)C(C)(C)C)cc1C2` (racemic), the Ki is 25 nM.

For the compound `C[C@@H](c1ccccc1)N(CC(=O)Nc1ccc2c(c1)C[C@@]1(C2)C(=O)NC(=O)N1C)C(=O)C(C)(C)C`, the Ki worked out at 56 nM.

A further experiment addresses T1, Calcitonin gene-related peptide type 1 receptor. Put plainly: Antagonist activity at human cloned CGRP receptor expressed in HEK293 cells assessed as inhibition of CGRP-induced cAMP production. It counts as functional, cell-based. (Cyclic AMP is a second messenger, typically raised through Gs and lowered through Gi signalling.)
A word on the IC50: it is the concentration that inhibits the measured activity by half. Regarding `NCC12CC(=O)Nc3cccc(c31)N(Cc1ccc3cc4c(cc3n1)C[C@]1(C4)C(=O)Nc3ncccc31)C2=O` (stereo partly drawn), the IC50 came out at 0.62 nM.

As for `CC1(C)CC[C@@H](c2c(F)cccc2F)N(CC(=O)Nc2ccc3c(c2)C[C@]2(C3)C(=O)Nc3ncccc32)C1=O`, the IC50 stood at 0.12 nM.
